Measured values as given in US20250325534A1, “MICROBIOCIDAL TETRAHYDROISOQUINOLINE DERIVATIVES” (SYNGENTA CROP PROTECTION AG, priority 2021, published 2025).

Tests used:
Format in all cases: cell-based
Monographella nivalis = Monographella nivalis (Microdochium nivale) / liquid culture (foot rot cereals); settings: 96 h, photometrically 4-5 days after application, read-out: control of Monographella nivalis
Method: (§1) Example B10: Monographella nivalis (Microdochium nivale)/Liquid Culture (Foot Rot Cereals) Conidia of the fungus from cryogenic storage are directly mixed into a nutrient broth (potato dextrose broth). After placing a DMSO solution of test compound into a microtiter plate (96-well format), the nutrient broth containing the fungal spores is added. The test plates are incubated at 24° C. and the inhibition of growth is determined photometrically 4-5 days after application.

[1] = test system: Mycosphaerella graminicola; test: Mycosphaerella graminicola (Septoria tritici) / liquid culture (Septoria blotch); settings: Zymoseptoria tritici, 96 h, photometrically 4-5 days after application, read-out: control of Mycosphaerella graminicola
Method: as §1, with “B19: Mycosphaerella graminicola (Septoria tritici)/Liquid” for “B10: Monographella nivalis (Microdochium nivale)/Liquid”, “(Septoria Blotch)” for “(Foot Rot Cereals)”

Mycosphaerella arachidis = Mycosphaerella arachidis (Cercospora arachidicola) / liquid culture (early leaf spot); settings: 96 h, photometrically 4-5 days after application, read-out: control of Mycosphaerella arachidis
Method: as §1, with “B11: Mycosphaerella arachidis (Cercospora arachidicola)/Liquid” for “B10: Monographella nivalis (Microdochium nivale)/Liquid”, “(Early Leaf Spot)” for “(Foot Rot Cereals)”

Glomerella lagenarium = Glomerella lagenarium (Colletotrichum lagenarium) / liquid culture (anthracnose); settings: Colletotrichum orbiculare, 72 h, photometrically 3-4 days after application, read-out: control of Glomerella lagenarium
Method: as §1, with “B5: Glomerella Lagenarium (Colletotrichum Lagenarium)/Liquid” for “B10: Monographella nivalis (Microdochium nivale)/Liquid”, “(Anthracnose)” for “(Foot Rot Cereals)”, “measured” for “determined”, “3-4” for “4-5”

## CC1c2ccc(OC(F)F)cc2C(C)(c2cnn(C)c2)CN1C(=O)c1cc(-c2ccc(F)cc2F)on1 (stereo not shown) [Compound P-30, [6-(difluoromethoxy)-1,4-dimethyl-4-(1-methylpyrazol-4-yl)-1,3-dihydroisoquinolin-2-yl]-[5-(2,4-difluorophenyl)isoxazol-3-yl]methanone]
Monographella nivalis
  inhibition of growth at 20 ppm: ≥ 80%
[1]
  inhibition of growth at 20 ppm: ≥ 80%
Mycosphaerella arachidis
  inhibition of growth at 20 ppm: ≥ 80%

## CC1c2ccc(OCC(F)F)cc2C(C)(c2cnn(C)c2)CN1C(=O)c1cc(-c2ccc(F)cc2F)on1 (stereo not shown) [Compound P-33, [6-(2,2-difluoroethoxy)-1,4-dimethyl-4-(1-methylpyrazol-4-yl)-1,3-dihydroisoquinolin-2-yl]-[5-(2,4-difluorophenyl)isoxazol-3-yl]methanone]
Monographella nivalis
  inhibition of growth at 20 ppm: ≥ 80%
[1]
  inhibition of growth at 20 ppm: ≥ 80%
Mycosphaerella arachidis
  inhibition of growth at 20 ppm: ≥ 80%

## COc1ccc2c(c1)C(C)(c1cnn(C)c1)CN(C(=O)c1cc(-c3ccccc3)on1)C2C (stereo not shown) [Compound P-39, [6-methoxy-1,4-dimethyl-4-(1-methylpyrazol-4-yl)-1,3-dihydroisoquinolin-2-yl]-(5-phenylisoxazol-3-yl)methanone]
Monographella nivalis
  inhibition of growth at 20 ppm: ≥ 80%
[1]
  inhibition of growth at 20 ppm: ≥ 80%
Mycosphaerella arachidis
  inhibition of growth at 20 ppm: ≥ 80%

## COc1ccc2c(c1)CN(C(=O)c1cc(-c3ccccc3)on1)CC2c1cnn(C)c1 (stereo not shown) [Compound P-50, [7-methoxy-4-(1-methylpyrazol-4-yl)-3,4-dihydro-1H-isoquinolin-2-yl]-(5-phenylisoxazol-3-yl)methanone]
Glomerella lagenarium
  inhibition of growth at 20 ppm: ≥ 80%
[1]
  inhibition of growth at 20 ppm: ≥ 80%
Mycosphaerella arachidis
  inhibition of growth at 20 ppm: ≥ 80%

## Cn1cc(C2CN(C(=O)c3cc(-c4ccc(F)cc4F)on3)Cc3ccc(Cl)cc32)cn1 (stereo not shown) [Compound P-58, [6-chloro-4-(1-methylpyrazol-4-yl)-3,4-dihydro-1H-isoquinolin-2-yl]-[5-(2,4-difluorophenyl)isoxazol-3-yl]methanone]
Glomerella lagenarium
  inhibition of growth at 20 ppm: ≥ 80%
Monographella nivalis
  inhibition of growth at 20 ppm: ≥ 80%
[1]
  inhibition of growth at 20 ppm: ≥ 80%

## Cn1cc(C2CN(C(=O)c3ccc(-c4ccc(C(F)(F)F)cc4)o3)Cc3ccccc32)cn1 (stereo not shown) [Compound P-76, [4-(1-methylpyrazol-4-yl)-3,4-dihydro-1H-isoquinolin-2-yl]-[5-[4-(trifluoromethyl)phenyl]-2-furyl]methanone]
Glomerella lagenarium
  inhibition of growth at 20 ppm: ≥ 80%

## Cn1cc(C2CN(C(=O)c3ccc(-c4ccc(F)cc4)o3)Cc3ccccc32)cn1 (stereo not shown) [Compound P-97, [5-(4-fluorophenyl)-2-furyl]-[4-(1-methylpyrazol-4-yl)-3,4-dihydro-1H-isoquinolin-2-yl]methanone]
Glomerella lagenarium
  inhibition of growth at 20 ppm: ≥ 80%

## Cn1cc(C2CN(C(=O)c3cc(-c4ccc(F)cc4F)on3)Cc3cc(C(F)(F)F)ccc32)cn1 (stereo not shown) [Compound P-111, [5-(2,4-difluorophenyl)isoxazol-3-yl]-[4-(1-methylpyrazol-4-yl)-7-(trifluoromethyl)-3,4-dihydro-1H-isoquinolin-2-yl]methanone]
Glomerella lagenarium
  inhibition of growth at 20 ppm: ≥ 80%
Monographella nivalis
  inhibition of growth at 20 ppm: ≥ 80%
[1]
  inhibition of growth at 20 ppm: ≥ 80%

## Cc1nn(C)c(C)c1C1CN(C(=O)c2cc(-c3ccc(Cl)cc3F)on2)Cc2ccccc21 (stereo not shown) [Compound P-125, [5-(4-chloro-2-fluoro-phenyl)isoxazol-3-yl]-[4-(1,3,5-trimethylpyrazol-4-yl)-3,4-dihydro-1H-isoquinolin-2-yl]methanone]
Monographella nivalis
  inhibition of growth at 20 ppm: ≥ 80%
[1]
  inhibition of growth at 20 ppm: ≥ 80%
Mycosphaerella arachidis
  inhibition of growth at 20 ppm: ≥ 80%

## Cn1cc(C2CN(C(=O)c3cc(-c4ccccc4)on3)Cc3ccc(F)cc32)cn1 (stereo not shown) [Compound P-139, [6-fluoro-4-(1-methylpyrazol-4-yl)-3,4-dihydro-1H-isoquinolin-2-yl]-(5-phenylisoxazol-3-yl)methanone]
Glomerella lagenarium
  inhibition of growth at 20 ppm: ≥ 80%
[1]
  inhibition of growth at 20 ppm: ≥ 80%
Mycosphaerella arachidis
  inhibition of growth at 20 ppm: ≥ 80%

## Cn1cc(C2CN(C(=O)c3cc(-c4cc(F)ccc4F)on3)Cc3ccccc32)cn1 (stereo not shown) [Compound P-149, [5-(2,5-difluorophenyl)isoxazol-3-yl]-[4-(1-methylpyrazol-4-yl)-3,4-dihydro-1H-isoquinolin-2-yl]methanone]
Glomerella lagenarium
  inhibition of growth at 20 ppm: ≥ 80%
Monographella nivalis
  inhibition of growth at 20 ppm: ≥ 80%
[1]
  inhibition of growth at 20 ppm: ≥ 80%

## Cc1ccccc1-c1cc(C(=O)N2Cc3ccccc3C(c3cnn(C)c3)C2)no1 (stereo not shown) [Compound P-169, [4-(1-methylpyrazol-4-yl)-3,4-dihydro-1H-isoquinolin-2-yl]-[5-(o-tolyl)isoxazol-3-yl]methanone]
Glomerella lagenarium
  inhibition of growth at 20 ppm: ≥ 80%
Monographella nivalis
  inhibition of growth at 20 ppm: ≥ 80%
[1]
  inhibition of growth at 20 ppm: ≥ 80%

## Cn1cc(C2CN(C(=O)c3cc(-c4ccc(F)c(F)c4)on3)Cc3ccccc32)cn1 (stereo not shown) [Compound P-172, [5-(3,4-difluorophenyl)isoxazol-3-yl]-[4-(1-methylpyrazol-4-yl)-3,4-dihydro-1H-isoquinolin-2-yl]methanone]
[1]
  inhibition of growth at 20 ppm: ≥ 80%
Mycosphaerella arachidis
  inhibition of growth at 20 ppm: ≥ 80%

## Cn1cc(C2CN(C(=O)c3cc(C4CCCC4)on3)Cc3ccccc32)cn1 (stereo not shown) [Compound P-176, (5-cyclopentylisoxazol-3-yl)-[4-(1-methylpyrazol-4-yl)-3,4-dihydro-1H-isoquinolin-2-yl]methanone]
[1]
  inhibition of growth at 20 ppm: ≥ 80%
Mycosphaerella arachidis
  inhibition of growth at 20 ppm: ≥ 80%

## Cn1cc(C2CN(C(=O)c3cc(-c4cccn4C)on3)Cc3ccccc32)cn1 (stereo not shown) [Compound P-179, [4-(1-methylpyrazol-4-yl)-3,4-dihydro-1H-isoquinolin-2-yl]-[5-(1-methylpyrrol-2-yl)isoxazol-3-yl]methanone]
Monographella nivalis
  inhibition of growth at 20 ppm: ≥ 80%
[1]
  inhibition of growth at 20 ppm: ≥ 80%
Mycosphaerella arachidis
  inhibition of growth at 20 ppm: ≥ 80%

## Cc1cccc(-c2cc(C(=O)N3Cc4ccccc4C(c4cnn(C)c4)C3)no2)c1 (stereo not shown) [Compound P-187, [4-(1-methylpyrazol-4-yl)-3,4-dihydro-1H-isoquinolin-2-yl]-[5-(m-tolyl)isoxazol-3-yl]methanone]
Glomerella lagenarium
  inhibition of growth at 20 ppm: ≥ 80%
[1]
  inhibition of growth at 20 ppm: ≥ 80%

## Cn1cc(C2CN(C(=O)c3cc(-c4ccco4)on3)Cc3ccccc32)cn1 (stereo not shown) [Compound P-188, [5-(2-furyl)isoxazol-3-yl]-[4-(1-methylpyrazol-4-yl)-3,4-dihydro-1H-isoquinolin-2-yl]methanone]
Glomerella lagenarium
  inhibition of growth at 20 ppm: ≥ 80%
[1]
  inhibition of growth at 20 ppm: ≥ 80%
Mycosphaerella arachidis
  inhibition of growth at 20 ppm: ≥ 80%

## Cn1cc(C2CN(C(=O)c3cc(-c4cccc(Cl)c4)on3)Cc3ccccc32)cn1 (stereo not shown) [Compound P-190, [5-(3-chlorophenyl)-isoxazol-3-yl]-[4-(1-methylpyrazol-4-yl)-3,4-dihydro-1H-isoquinolin-2-yl]methanone]
Glomerella lagenarium
  inhibition of growth at 20 ppm: ≥ 80%
Monographella nivalis
  inhibition of growth at 20 ppm: ≥ 80%
[1]
  inhibition of growth at 20 ppm: ≥ 80%

## CC1c2ccccc2C(c2cnn(C)c2)(C(C)C)CN1C(=O)c1cc(-c2ccc(F)cc2F)on1 (stereo not shown) [Compound P-220, [5-(2,4-difluorophenyl)isoxazol-3-yl]-[4-isopropyl-1-methyl-4-(1-methylpyrazol-4-yl)-1,3-dihydroisoquinolin-2-yl]methanone]
[1]
  inhibition of growth at 20 ppm: ≥ 80%
Mycosphaerella arachidis
  inhibition of growth at 20 ppm: ≥ 80%

## CCC1(c2cnn(C)c2)CN(C(=O)c2cc(-c3ccc(F)cc3F)on2)C(C)c2ccccc21 (stereo not shown) [Compound P-222, [5-(2,4-difluorophenyl)isoxazol-3-yl]-[4-ethyl-1-methyl-4-(1-methylpyrazol-4-yl)-1,3-dihydroisoquinolin-2-yl]methanone]
Monographella nivalis
  inhibition of growth at 20 ppm: ≥ 80%
[1]
  inhibition of growth at 20 ppm: ≥ 80%
Mycosphaerella arachidis
  inhibition of growth at 20 ppm: ≥ 80%

## Cc1cc(-c2cc(C(=O)N3Cc4ccccc4C(c4cnn(C)c4C)C3)no2)n(C)n1 (stereo not shown) [Compound P-226]
Glomerella lagenarium
  inhibition of growth at 20 ppm: ≥ 80%
[1]
  inhibition of growth at 20 ppm: ≥ 80%

## Cc1c(C2CN(C(=O)c3cc(C4CCCCC4)on3)Cc3ccccc32)cnn1C (stereo not shown) [Compound P-236, (5-cyclohexylisoxazol-3-yl)-[4-(1,5-dimethylpyrazol-4-yl)-3,4-dihydro-1H-isoquinolin-2-yl]methanone]
Monographella nivalis
  inhibition of growth at 20 ppm: ≥ 80%
[1]
  inhibition of growth at 20 ppm: ≥ 80%
Mycosphaerella arachidis
  inhibition of growth at 20 ppm: ≥ 80%

## CC(C)[C@@]1(c2cnn(C)c2)CN(C(=O)c2cc(-c3ccc(F)cc3F)on2)[C@@H](C)c2ccccc21 [Compound P-239, [5-(2,4-difluorophenyl)isoxazol-3-yl]-[(1S,4R)-4-isopropyl-1-methyl-4-(1-methylpyrazol-4-yl)-1,3-dihydroisoquinolin-2-yl]methanone]
[1]
  inhibition of growth at 20 ppm: ≥ 80%
Mycosphaerella arachidis
  inhibition of growth at 20 ppm: ≥ 80%

## CC(C)[C@]1(c2cnn(C)c2)CN(C(=O)c2cc(-c3ccc(F)cc3F)on2)[C@@H](C)c2ccccc21 [Compound P-241, [5-(2,4-difluorophenyl)isoxazol-3-yl]-[(1S,4S)-4-isopropyl-1-methyl-4-(1-methylpyrazol-4-yl)-1,3-dihydroisoquinolin-2-yl]methanone]
[1]
  inhibition of growth at 20 ppm: ≥ 80%
Mycosphaerella arachidis
  inhibition of growth at 20 ppm: ≥ 80%
